According to patent US10385014B2, “Acyloxyalkyl carbamate prodrugs, methods of synthesis and use” (ARBOR PHARMACEUTICALS, LLC, priority 2003, dated 2019):

Experiments:
pancreatin = assay: Pancreatin stability; assay type: in vitro ADME, porcine; details: 1% (w/v) pancreatin, 5 μM, pH 7.5, 37° C.
Procedure: Pancreatin Stability: Stability studies were conducted by incubating prodrug (5 μM) with 1% (w/v) pancreatin (Sigma, P-1625, from porcine pancreas) in 0.025 M Tris buffer containing 0.5 M NaCl (pH 7.5) at 37° C. for 60 min. The reaction was stopped by addition of 2 volumes of methanol. After centrifugation at 14,000 rpm for […], the supernatant was removed and analyzed by LC/MS/MS.

[1] = Caco-2 homogenate S9 stability; assay type: in vitro ADME; details: Caco-2 S9 (0.5 mg protein per mL), 5 μM, 37° C.
Procedure: Caco-2 Homogenate S9 Stability: Caco-2 cells were grown for 21 days prior to harvesting. Culture medium was removed and cell monolayers were rinsed and scraped off into ice-cold 10 mM sodium phosphate/0.15 M potassium chloride, pH 7.4. Cells were lysed by sonication at 4° C. using a probe sonicator. Lysed cells were then transferred into 1.5 mL centrifuge vials and centrifuged at 9000 g for 20 min at 4° C. The resulting supernatant (Caco-2 cell homogenate S9 fraction) was aliquoted into 0.5 mL vials and stored at −80° C. until used.
For stability studies, prodrug (5 μM) was incubated in Caco-2 homogenate S9 fraction (0.5 mg protein per mL) for 60 min at 37° C. Concentrations of intact prodrug and released baclofen were determined at zero time and 60 minutes using LC/MS/MS.

[2] = Prodrug stability in rat liver S9; assay type: in vitro ADME; details: Rat Liver S9 (0.5 mg/mL), 2.0 μM, NADPH, 37° C.
Procedure: (§1) The stabilities of prodrugs were evaluated in one or more in vitro systems using a variety of tissue preparations following methods known in the art. The chemical stability of prodrugs in aqueous buffers at pH's of 2.0, 7.4 and 8.0 were also measured. […] Each preparation was incubated with test compound at 37° C. for one hour. Aliquots (50 μL) were removed at 0, 30, and 60 min and quenched with 0.1% trifluoroacetic acid in acetonitrile. Samples were then centrifuged and analyzed by LC/MS/MS (see Example 86 below for method details).

[3] = Chemical stability of prodrugs in aqueous buffers; assay type: physicochemical
Procedure: as §1

[4] = Prodrug stability in human liver S9; assay type: in vitro ADME; details: Human Liver S9 (0.5 mg/mL), 2.0 μM, NADPH, 37° C.
Procedure: as §1

[5] = Prodrug stability in human plasma in vitro; assay type: in vitro ADME; details: 2.0 μM, 37° C.
Procedure: as §1

[6] = Prodrug stability in rat plasma in vitro; assay type: in vitro ADME; details: 2.0 μM, 37° C.
Procedure: as §1

SMILES	% of Prodrug Remaining after 60 min (pancreatin) [%]	% of Prodrug Remaining after 60 min [1] [%]	% of Prodrug Remaining after 60 min [2] [%]	% of Baclofen Released after 60 min ([3]; aqueous buffer pH 2.0, 37° C.) [%]	% of Baclofen Released after 60 min ([3]; aqueous buffer pH 7.4, 37° C.) [%]	% of Baclofen Released after 60 min ([3]; aqueous buffer pH 8.0, 37° C.) [%]	% of Prodrug Remaining after 60 min ([3]; aqueous buffer pH 8.0, 37° C.) [%]	% of Prodrug Remaining after 60 min [4] [%]	% of Baclofen Released after 60 min [5] [%]	% of Baclofen Released after 60 min [2] [%]	% of Baclofen Released after 60 min [1] [%]	% of Prodrug Remaining after 60 min ([3]; aqueous buffer pH 2.0, 37° C.) [%]	% of Prodrug Remaining after 60 min ([3]; aqueous buffer pH 7.4, 37° C.) [%]	% of Baclofen Released after 60 min [4] [%]	% of Baclofen Released after 60 min (pancreatin) [%]	% of Prodrug Remaining after 60 min [6] [%]	% of Baclofen Released after 60 min [6] [%]
O=C([O-])C[C@@H](CNC(=O)OCOC(=O)C1CCCCC1)c1ccc(Cl)cc1.[Na+] [(14), Sodium 4-[(Cyclohexanecarboxymethoxy)carbonylamino]-(3R)-(4-chlorophenyl)-butanoate]	2	2	2	1	1	2	102	2									
CC(C)C(=O)OC(OC(=O)NC[C@H](CC(=O)[O-])c1ccc(Cl)cc1)C1CCCCC1.[Na+] (stereo partly drawn) [(84), Sodium 4-[(1-Isobutanoyloxy-1-cyclohexylmethoxy)carbonylamino]-(3R)-(4-chlorophenyl)-butanoate]			4	0	0	1		2	4	91							
O=C([O-])C[C@@H](CNC(=O)OCOC(=O)c1ccccc1)c1ccc(Cl)cc1.[Na+] [(12), Sodium 4-[(Benzoyloxymethoxy)carbonylamino]-(3R)-(4-chlorophenyl)-butanoate]		2	3	0	0	0		1	5		100	100	100	100			
CCOC(C)(OCC)C(=O)OCOC(=O)NC[C@H](CC(=O)[O-])c1ccc(Cl)cc1.[Na+] [(51), Sodium 4-[(2,2-Diethoxypropanoyloxymethoxy)carbonylamino]-(3R)-(4-chlorophenyl)-butanoate]		3	2	0	2	9		6			100			91	50		
CC(C)C(=O)O[C@@H](OC(=O)NC[C@H](CC(=O)O)c1ccc(Cl)cc1)C(C)C [(104)]	90		3	0	0	0	100	3	2				100	97	6		
CC(OC(=O)NC[C@H](CC(=O)[O-])c1ccc(Cl)cc1)OC(=O)C(C)C.[Na+] (stereo partly drawn) [(33), Sodium 4-[(1-Isobutanoyloxyethoxy)carbonylamino]-(3R)-(4-chlorophenyl)-butanoate]		3	4	0	0	0		3	4	101				101			
CCCC(=O)OC(OC(=O)NC[C@H](CC(=O)[O-])c1ccc(Cl)cc1)C(C)C.[Na+] (stereo partly drawn) [(27), Sodium 4-[(1-Butanoyloxyisobutoxy)carbonylamino]-(3R)-(4-chlorophenyl)-butanoate]			0	0	0	1		8	12						9		
CC(C)CC(=O)OCOC(=O)NC[C@H](CC(=O)[O-])c1ccc(Cl)cc1.[Na+] [(59), Sodium 4-[(3-Methylbutanoyloxymethoxy)carbonylamino]-(3R)-(4-chlorophenyl)-butanoate]		3	2	0	1	2		1		85			103			2	
CCC[C@H](OC(=O)NC[C@H](CC(=O)[O-])c1ccc(Cl)cc1)OC(=O)C(C)C.[Na+] [(91), Sodium 4-{[(1S)-Isobutanoyloxybutoxy]carbonylamino}-(3R)-(4-chlorophenyl)-butanoate]		6		0	0	1		1	2						78		
CC(C)C(=O)O[C@H](C)OC(=O)NC[C@H](CC(=O)[O-])c1ccc(Cl)cc1.[Na+] [(34), Sodium 4-{[(1S)-Isobutanoyloxyethoxy]carbonylamino}-(3R)-(4-chlorophenyl)-butanoate]		2	1	0	0	0	100	3	2	100	100		100	100	18		
CC(=O)OCOC(=O)NC[C@H](CC(=O)[O-])c1ccc(Cl)cc1.[Na+] [(10), Sodium 4-[(Acetoxymethoxy)carbonylamino]-(3R)-(4-chlorophenyl)-butanoate]		2	0	1	3	9		1									
CC(OC(=O)NC[C@H](CC(=O)[O-])c1ccc(Cl)cc1)OC(=O)c1ccccc1.[Na+] (stereo partly drawn) [(40), Sodium 4-[(1-Benzoyloxyethoxy)carbonylamino]-(3R)-(4-chlorophenyl)-butanoate]			8	0	0	2		1	2								
CC(=O)OC(OC(=O)NC[C@H](CC(=O)[O-])c1ccc(Cl)cc1)C(C)C.[Na+] (stereo partly drawn) [(23), Sodium 4-[(1-Acetoxyisobutoxy)carbonylamino]-(3R)-(4-chlorophenyl)-butanoate]			3	0	1	2		4	3			107					
O=C([O-])C[C@@H](CNC(=O)OCOC(=O)c1cccs1)c1ccc(Cl)cc1.[Na+] [(57), Sodium 4-[(2-Thienylcarbonyloxymethoxy)carbonylamino]-(3R)-(4-chlorophenyl)-butanoate]		2	2	0	0	0	100	1					100				
CC(C)C(OC(=O)NC[C@H](CC(=O)[O-])c1ccc(Cl)cc1)OC(=O)C(C)(C)C.[Na+] (stereo partly drawn) [(43), Sodium 4-[(1-Pivaloyloxyisobutoxy)carbonylamino]-(3R)-(4-chlorophenyl)-butanoate]			3	0	0	0			2						4		
CC(C)C(=O)O[C@@H](OC(=O)NC[C@H](CC(=O)[O-])c1ccc(Cl)cc1)C(C)C.[Na+] [(92), Sodium 4-{[(1S)-Isobutanoyloxyisobutoxy]carbonylamino}-(3R)-(4-chlorophenyl)-butanoate]			6	0	0	1		4	1					80	7		
CC(C)(C)C(=O)OCOC(=O)NC[C@H](CC(=O)[O-])c1ccc(Cl)cc1.[Na+] [(20), Sodium 4-[(Pivaloyloxymethoxy)carbonylamino]-(3R)-(4-chlorophenyl)-butanoate]		1		0	0	0		1	9		100	100	100				8
